# Values of other authors as cited in patent publication US8888736B2, “High shear application in medical therapy” (H R D Corporation, priority 2010, dated 2014).
# Where two headings read alike, the source gives them in different places.
# Key:
# [1] = believed to average around
smiles,measurement,setting,value
CCCl [chloroethane],solubility,water at 20° C.,0.0078 mol/L
C1CC1 [cyclopropane],solubility,in water at 21° C.,537 ppm
C=COC=C [divinyl ether],solubility,water at 37° C.,0.0749 mol/L
CCCl [ethylchloride],solubility,in water at 21° C.,0.678 % by weight
C=C [ethylene],solubility,water at 20° C.,0.015 g/100 ml
S [hydrogen sulfide],toxic level in the body,[1],300-350 ppm
ClC=C(Cl)Cl [trichloroethylene],solubility,water at 20° C.,0.1 g/100 ml
